According to ChEMBL document CHEMBL4270481, “ALK5 kinase inhibitory activity and synthesis of 2,3,4-substituted 5,5-dimethyl-5,6-dihydro-4H-pyrrolo[1,2-b]pyrazoles” (Eur J Med Chem, 2017):
Active and inactive are the calls of the source. The rule behind the calls is not given here.

Legend:
[1] = molecular target: Tyrosine-protein kinase ABL1 (Mus musculus, UniProt P00520); assay: biochemical; type: cell-based, Sf9
[2] = molecular target: T1, TGF-beta receptor type-1 (Homo sapiens, UniProt P36897); assay: Inhibition of human ALK5 expressed in Sf9 insect cells using casein as substrate in presence of [gamma-33P]ATP; type: cell-based
T1 sequence (P36897 whole entry): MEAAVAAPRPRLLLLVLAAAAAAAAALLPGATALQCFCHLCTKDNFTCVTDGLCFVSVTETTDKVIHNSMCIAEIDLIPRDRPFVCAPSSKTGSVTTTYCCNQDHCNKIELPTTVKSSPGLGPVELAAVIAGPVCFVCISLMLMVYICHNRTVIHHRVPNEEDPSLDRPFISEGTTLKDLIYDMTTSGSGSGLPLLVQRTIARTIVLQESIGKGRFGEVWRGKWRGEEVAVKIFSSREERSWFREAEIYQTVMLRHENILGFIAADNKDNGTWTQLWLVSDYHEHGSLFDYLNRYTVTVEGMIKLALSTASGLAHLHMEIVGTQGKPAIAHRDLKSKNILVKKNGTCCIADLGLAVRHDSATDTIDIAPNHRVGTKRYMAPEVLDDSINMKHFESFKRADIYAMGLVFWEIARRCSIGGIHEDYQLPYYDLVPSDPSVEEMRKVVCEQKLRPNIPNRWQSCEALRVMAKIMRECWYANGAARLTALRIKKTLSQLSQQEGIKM

[3] = system: K562; assay: Cytotoxicity against human K562 cells assessed as decrease in cell proliferation after 72 hrs by calcein AM staining-based assay; type: functional; conditions: K562, 72 h
[4] = molecular target: Cyclin-dependent kinase 2/cyclin E1 (Homo sapiens, UniProt P24941); assay: Inhibition of human CDK2/cyclin E expressed in Sf9 insect cells using histone H1 as substrate in presence of [gamma-33P]ATP; type: cell-based
[5] = system: MCF7; assay: Cytotoxicity against human MCF7 cells assessed as decrease in cell proliferation after 72 hrs by calcein AM staining-based assay; type: functional; conditions: MCF7, 72 h
[6] = molecular target: T2, TGF-beta receptor type-1 (Homo sapiens) (UniProt P36897); conditions: HeLa, at 1 µM
T2 sequence (whole entry): T1 sequence (P36897 whole entry)
Description: Inhibition of ALK5 in serum starved human HeLa cells assessed as reduction in TGF-beta-induced SMAD2/3 nuclear transaction at 1 uM pre-incubated for 30 mins before TGF-beta stimulation for 30 mins by immunofluorescence analysis

Sequence of Tyrosine-protein kinase ABL1 (P00520 whole entry): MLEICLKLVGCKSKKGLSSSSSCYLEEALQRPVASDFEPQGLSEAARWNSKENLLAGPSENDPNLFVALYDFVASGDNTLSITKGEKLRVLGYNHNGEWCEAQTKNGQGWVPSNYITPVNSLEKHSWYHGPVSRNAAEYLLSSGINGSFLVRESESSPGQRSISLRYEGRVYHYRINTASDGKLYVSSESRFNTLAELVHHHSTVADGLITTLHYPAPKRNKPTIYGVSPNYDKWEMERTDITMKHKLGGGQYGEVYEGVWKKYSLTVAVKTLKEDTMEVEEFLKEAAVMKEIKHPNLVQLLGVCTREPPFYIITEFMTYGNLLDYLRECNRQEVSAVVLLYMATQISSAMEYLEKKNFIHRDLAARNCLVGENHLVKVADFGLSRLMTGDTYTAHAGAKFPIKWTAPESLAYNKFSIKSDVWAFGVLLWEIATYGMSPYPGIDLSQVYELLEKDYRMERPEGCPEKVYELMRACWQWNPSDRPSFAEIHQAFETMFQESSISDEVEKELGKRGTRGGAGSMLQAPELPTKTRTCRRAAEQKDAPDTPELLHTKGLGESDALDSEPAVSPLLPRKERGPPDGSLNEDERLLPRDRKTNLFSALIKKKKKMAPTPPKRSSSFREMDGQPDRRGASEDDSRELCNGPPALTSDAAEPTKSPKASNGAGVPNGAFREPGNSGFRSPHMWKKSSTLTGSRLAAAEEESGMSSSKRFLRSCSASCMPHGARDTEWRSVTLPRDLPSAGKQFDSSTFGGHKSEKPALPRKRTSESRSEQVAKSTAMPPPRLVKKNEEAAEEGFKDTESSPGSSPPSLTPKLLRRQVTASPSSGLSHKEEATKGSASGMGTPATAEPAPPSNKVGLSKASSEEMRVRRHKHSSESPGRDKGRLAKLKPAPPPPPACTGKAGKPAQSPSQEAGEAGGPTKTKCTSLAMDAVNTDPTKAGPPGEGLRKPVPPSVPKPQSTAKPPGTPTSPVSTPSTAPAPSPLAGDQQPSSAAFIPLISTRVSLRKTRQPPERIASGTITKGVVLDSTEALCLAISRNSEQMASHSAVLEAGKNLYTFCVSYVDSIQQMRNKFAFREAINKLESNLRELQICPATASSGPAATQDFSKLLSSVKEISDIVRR

Row | IC50 [1] [µM] | IC50 [2] [µM] | IC50 [4] [µM] | SMILES | IC50 [3] [µM] | IC50 [5] [µM] | inhibition [6]
1 | > 100 | 1.99 | > 100 | CC1(C)Cc2c(-c3ccc(O)cc3)c(-c3ccccn3)nn2C1 | 74 | > 100 | 
2 | 21 | 0.181 | > 100 | Cc1cccc(-c2nn3c(c2-c2ccncc2)C(C)C(C)(C)C3)n1 (stereo not given) | > 100 | > 100 | 
3 | 6.4 | 0.162 | > 100 | Cc1cccc(-c2nn3c(c2-c2ccncc2)C(C)C(C)(C)C3)c1C#N (stereo not given) | 92 | 97 | 
4 | 25 | 0.548 | > 100 | Cc1cc(-c2c(-c3cccc(C)n3)nn3c2C(C)C(C)(C)C3)ccn1 (stereo not given) | > 100 | > 100 | 
5 | 11 | 1.29 | > 100 | CC1c2c(-c3ccncc3)c(-c3ccccc3C#N)nn2CC1(C)C (stereo not given) | 77 | > 100 | 
6 | 6.8 | 0.229 | 37 | CCc1cccc(-c2nn3c(c2-c2ccnc(Nc4ccc(S(N)(=O)=O)cc4)c2)C(C)C(C)(C)C3)n1 (stereo not given) | 24 | 28 | 
7 | > 50 | 1.94 | > 50 | CC1(C)Cc2c(-c3ccncc3)c(-c3ccccn3)nn2C1 | > 100 | > 100 | 
8 | 26 | 0.406 | > 100 | Cc1cccc(-c2nn3c(c2-c2ccncc2)CC(C)(C)C3)n1 | > 100 | > 100 | 
9 | 0.55 | 0.154 | 11 | Cc1cccc(-c2nn3c(c2-c2ccnc(Nc4ccc(S(N)(=O)=O)cc4)c2)C(C)C(C)(C)C3)n1 (stereo not given) | 31 | 22 | 
10 | > 100 | 0.612 | > 100 | COc1ccc(-c2c(-c3cccc(C)n3)nn3c2C(C)C(C)(C)C3)cc1 (stereo not given) | 88 | 66 | 
11 | > 12 | 5.19 | > 12 | CC1c2c(-c3ccc(O)cc3)c(-c3ccccc3C#N)nn2CC1(C)C (stereo not given) | > 12 | > 12 | 
12 | 20 | 0.229 | > 100 | Cc1cccc(-c2nn3c(c2-c2ccc(O)cc2)CC(C)(C)C3)n1 | > 25 | > 25 | 
13 | 43 | 0.183 | > 100 | CCc1cccc(-c2nn3c(c2-c2ccncc2)C(C)C(C)(C)C3)n1 (stereo not given) | > 100 | > 100 | 
14 | > 100 | 0.805 | > 100 | CCc1cccc(-c2nn3c(c2-c2ccc(OC)cc2)C(C)C(C)(C)C3)n1 (stereo not given) | 64 | 45 | 
15 | > 100 | 0.098 | > 100 | CCc1cccc(-c2nn3c(c2-c2ccc(O)cc2)C(C)C(C)(C)C3)n1 (stereo not given) | > 100 | 46 | 
16 | 25 | 0.743 | > 100 | COCC1c2c(-c3ccncc3)c(-c3cccc(C)n3)nn2CC1(C)C (stereo not given) | > 100 | > 100 | 
17 | > 100 | 0.197 | > 25 | Cc1cccc(-c2nn3c(c2-c2ccc(O)cc2)[C@@H](C)C(C)(C)C3)n1 | > 50 | > 50 | 
18 | > 100 | 0.097 | > 100 | Cc1cccc(-c2nn3c(c2-c2ccc(O)cc2)[C@H](C)C(C)(C)C3)n1 | > 100 | > 100 | 
19 | > 100 | 0.517 | > 100 | Cc1cccc(-c2nn3c(c2-c2ccnc(Cl)c2)C(C)C(C)(C)C3)n1 (stereo not given) | > 100 | > 100 | 
20 | > 100 | 1.23 | > 100 | Cc1cccc(-c2nn3c(c2-c2ccnc(Cl)c2)CC(C)(C)C3)n1 | > 100 | > 100 | 
21 | 93 | 1.41 | > 100 | Cc1cccc(-c2nn3c(c2-c2ccncc2)C(CO)C(C)(C)C3)n1 (stereo not given) | > 100 | > 100 | 
22 | > 12 | 0.341 | > 12 | Cc1cccc(-c2nn3c(c2-c2ccc(O)cc2)C(C)C(C)(C)C3)c1C#N (stereo not given) | > 12 | > 12 | 
23 | > 100 | 2.01 | > 100 | CCOC(=O)c1ccc(-c2c(-c3cccc(C)n3)nn3c2C(C)C(C)(C)C3)cc1 (stereo not given) | 45 | 29 | 
24 | > 100 | 0.261 | 53 | CCc1cccc(-c2nn3c(c2-c2ccc(O)cc2)[C@@H](C)C(C)(C)C3)n1 | 77 | 58 | 
25 | > 100 | 2.74 | > 100 | CCc1cccc(-c2nn3c(c2-c2ccnc(Cl)c2)C(C)C(C)(C)C3)n1 (stereo not given) | 82 | > 100 | 
26 | 20 | 2.52 | > 100 | CC1(C)Cc2c(-c3ccncc3)c(-c3ccccc3C#N)nn2C1 | > 100 | > 100 | 
27 | > 100 | 0.137 | > 100 | CCc1cccc(-c2nn3c(c2-c2ccc(O)cc2)[C@H](C)C(C)(C)C3)n1 | > 100 | > 100 | 
28 | 2.5 | 0.147 | > 100 | Cc1cccc(-c2nn3c(c2-c2ccnc(Nc4ccc(S(N)(=O)=O)cc4)c2)CC(C)(C)C3)n1 | 52 | 92 | 

Row | SMILES | IC50 [1] [µM] | IC50 [2] [µM] | IC50 [4] [µM] | IC50 [3] [µM] | IC50 [5] [µM] | inhibition [6]
29 | Cc1cccc(-c2n[nH]cc2-c2ccc3ncccc3n2)n1 [GW786460X] | 21 |  | > 100 | > 100 | > 100 | Active
